Drawing on BindingDB's records for doi:10.3109/14756366.2012.663363 (Sun Yat-Sen University, 2013), this text covers IC50 for 13 compounds.

The structures appear in SMILES notation. Bounds are passed on as bounds.

The target in assay [1] is Carboxylic ester hydrolase (Equus caballus, UniProt Q9N1N9). Nature of the assay: In Vitro AChE and BuChE Inhibition Assays. The settings on record: pH 8. As to the method: (§1) Enzyme solutions were prepared to give 2 units/mL in 2 mL aliquots. […] The substrate was added to the assay medium containing enzyme, buffer and DTNB with inhibitor after 15 min of incubation time.

Assay [2] deals with Acetylcholinesterase (Electrophorus electricus, UniProt O42275). Nature of the assay: In Vitro AChE and BuChE Inhibition Assays. The settings on record: pH 8. As to the method:
as §1

Sequence of Carboxylic ester hydrolase (Q9N1N9 whole entry): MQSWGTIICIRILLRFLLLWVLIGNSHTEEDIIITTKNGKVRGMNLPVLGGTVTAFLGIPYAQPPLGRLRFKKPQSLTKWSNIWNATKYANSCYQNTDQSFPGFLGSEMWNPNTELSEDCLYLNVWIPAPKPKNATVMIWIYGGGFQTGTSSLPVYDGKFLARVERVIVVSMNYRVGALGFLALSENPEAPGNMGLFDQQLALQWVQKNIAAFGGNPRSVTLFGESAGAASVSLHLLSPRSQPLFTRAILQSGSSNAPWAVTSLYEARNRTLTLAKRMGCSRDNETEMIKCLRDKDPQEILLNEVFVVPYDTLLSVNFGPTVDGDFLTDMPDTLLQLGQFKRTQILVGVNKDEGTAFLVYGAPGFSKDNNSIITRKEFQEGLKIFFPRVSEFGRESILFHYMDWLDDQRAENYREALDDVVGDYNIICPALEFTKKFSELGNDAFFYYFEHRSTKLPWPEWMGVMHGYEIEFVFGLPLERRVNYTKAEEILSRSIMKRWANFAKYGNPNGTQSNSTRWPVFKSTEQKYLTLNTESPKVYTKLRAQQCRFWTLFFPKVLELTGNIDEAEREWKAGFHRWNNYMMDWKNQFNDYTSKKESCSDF
Sequence of Acetylcholinesterase (O42275 whole entry): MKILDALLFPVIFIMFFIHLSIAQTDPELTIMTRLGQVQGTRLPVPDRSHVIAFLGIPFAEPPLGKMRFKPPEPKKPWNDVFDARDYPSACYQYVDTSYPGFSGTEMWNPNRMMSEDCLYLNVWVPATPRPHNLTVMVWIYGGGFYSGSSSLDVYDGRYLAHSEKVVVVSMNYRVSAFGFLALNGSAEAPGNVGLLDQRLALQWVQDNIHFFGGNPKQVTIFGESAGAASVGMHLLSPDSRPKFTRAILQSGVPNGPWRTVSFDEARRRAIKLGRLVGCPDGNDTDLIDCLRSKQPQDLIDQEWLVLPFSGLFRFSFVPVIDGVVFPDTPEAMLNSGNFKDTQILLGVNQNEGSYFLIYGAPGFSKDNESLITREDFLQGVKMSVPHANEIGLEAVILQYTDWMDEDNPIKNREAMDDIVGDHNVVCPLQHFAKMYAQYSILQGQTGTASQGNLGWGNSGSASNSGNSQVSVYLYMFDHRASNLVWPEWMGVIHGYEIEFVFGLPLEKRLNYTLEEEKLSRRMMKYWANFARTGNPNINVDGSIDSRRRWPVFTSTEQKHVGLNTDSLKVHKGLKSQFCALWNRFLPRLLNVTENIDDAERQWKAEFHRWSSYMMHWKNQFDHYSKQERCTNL

As a reminder, the IC50 is the concentration that inhibits the measured activity by half. A higher IC50 goes with lower potency. Take `O=c1[nH]c(-c2cc3ccccc3[nH]2)nc2ccccc12` [2-(2-Indolyl-)-4(3H)-quinazolines (2IQ)]: the concentration for half-maximal inhibition (IC50) in assay [1] and in assay [2] was above 10 µM throughout.
Regarding `CCN(CC)CCCNc1nc(-c2cc3ccccc3[nH]2)nc2ccccc12` [N1-(2-(1H-indol-2-yl)quinazolin-4-yl)-N3,N3-diethylpropane-1,3-diamine (9b)], the half-inhibitory concentration (IC50) in assay [1] and in assay [2] was above 10 µM throughout.
In the case of `CN(C)CCCNc1nc(-c2cc3ccccc3[nH]2)nc2ccccc12` [N1-(2-(1H-indol-2-yl)quinazolin-4-yl)-N3,N3-dimethylpropane-1,3-diamine (9a)], the concentration for half-maximal inhibition (IC50) in assay [1] and in assay [2] was above 10 µM throughout.
As for `CN1CCN(CC(=O)Nc2ccc3nc(-c4cc5ccccc5[nH]4)[nH]c(=O)c3c2)CC1` [N-(2-(1H-indol-2-yl)-4-oxo-3,4-dihydroquinazolin-6-yl)-2-(4-methylpiperazin-1-yl)acetamide (3e)], the half-maximal inhibitory concentration (IC50) in assay [1] and in assay [2] was above 10 µM throughout.
`CCN(CC)CC(=O)Nc1ccc2nc(-c3cc4ccccc4[nH]3)[nH]c(=O)c2c1` [N-(2-(1H-indol-2-yl)-4-oxo-3,4-dihydroquinazolin-6-yl)-2-(diethylamino)acetamide (3a)]: the IC50 in assay [1] was determined as 14.8 µM; in assay [2], 0.503 µM.
As to `O=C(CN1CCCCC1)Nc1ccc2nc(-c3cc4ccccc4[nH]3)[nH]c(=O)c2c1` [N-(2-(1H-indol-2-yl)-4-oxo-3,4-dihydroquinazolin-6-yl)-2-(piperidin-1-yl)acetamide (3c)], the concentration for half-maximal inhibition (IC50) stood at 10.2 µM in assay [1] and 0.148 µM in assay [2].
As to `O=C(CN1CCCC1)Nc1ccc2nc(-c3cc4ccccc4[nH]3)[nH]c(=O)c2c1` [N-(2-(1H-indol-2-yl)-4-oxo-3,4-dihydroquinazolin-6-yl)-2-(pyrrolidin-1-yl)acetamide (3b)], the IC50 was 3.1 µM in assay [1] and 0.327 µM in assay [2].
As for `O=C(CN1CCOCC1)Nc1ccc2nc(-c3cc4ccccc4[nH]3)[nH]c(=O)c2c1` [N-(2-(1H-indol-2-yl)-4-oxo-3,4-dihydroquinazolin-6-yl)-2-morpholinoacetamide (3d)], the IC50 amounted to 32.2 µM in assay [1] and 2.02 µM in assay [2].
As to `CN1CCN(CCC(=O)Nc2ccc3nc(-c4cc5ccccc5[nH]4)[nH]c(=O)c3c2)CC1` [N-(2-(1H-indol-2-yl)-4-oxo-3,4-dihydroquinazolin-6-yl)-3-(4-methylpiperazin-1-yl)propanamide (3j)], the IC50 in assay [1] and in assay [2] was above 10 µM in each case.
As for `CCN(CC)CCC(=O)Nc1ccc2nc(-c3cc4ccccc4[nH]3)[nH]c(=O)c2c1` [N-(2-(1H-indol-2-yl)-4-oxo-3,4-dihydroquinazolin-6-yl)-3-(diethylamino)propanamide (3f)], the 50% inhibitory concentration (IC50) in assay [1] was 2.43 µM; in assay [2], 0.276 µM.
For `O=C(CCN1CCCCC1)Nc1ccc2nc(-c3cc4ccccc4[nH]3)[nH]c(=O)c2c1` [N-(2-(1H-indol-2-yl)-4-oxo-3,4-dihydroquinazolin-6-yl)-3-(piperidin-1-yl)propanamide (3h)], in that order: 7.32 µM and 0.021 µM.
With `O=C(CCN1CCCC1)Nc1ccc2nc(-c3cc4ccccc4[nH]3)[nH]c(=O)c2c1` [N-(2-(1H-indol-2-yl)-4-oxo-3,4-dihydroquinazolin-6-yl)-3-(pyrrolidin-1-yl)propanamide (3g)], the IC50 came out at 0.403 µM in assay [1] and 0.1 µM in assay [2].
For `O=C(CCN1CCOCC1)Nc1ccc2nc(-c3cc4ccccc4[nH]3)[nH]c(=O)c2c1` [N-(2-(1H-indol-2-yl)-4-oxo-3,4-dihydroquinazolin-6-yl)-3-morpholinopropanamide (3i)], the half-maximal inhibitory concentration (IC50) is 51.6 µM in assay [1] and 1.26 µM in assay [2].
